From the NIST ThermoML archive (doi:10.1021/je030107c)

What was measured:
[1] = xn = mol fraction of the nth substance listed; settings: 101.3 kPa, Liquid; for viscosity: Capillary tube (Ostwald / Ubbelohde) method; for speed of sound: Linear variable-path acoustic interferometer; for mass density: Pycnometric method
[2] = refractive index (Na D-line) (dimensionless); xn = mol fraction of the nth substance listed; settings: 101.3 kPa, Liquid, Standard Abbe refractometry

CCN(CC)CC [triethylamine] + C1COCCO1
Settings	mass density, 298.15 K [kg/m3]	mass density, 303.15 K [kg/m3]	mass density, 308.15 K [kg/m3]	refractive index, 298.15 K	refractive index, 303.15 K	refractive index, 308.15 K	speed of sound, 298.15 K [m/s]	viscosity, 298.15 K [mPa·s]	viscosity, 303.15 K [mPa·s]	viscosity, 308.15 K [mPa·s]
[1], x2 = 0	723.1	718.5	713.6	–	–	–	1127	0.363	0.347	0.33
[1], x2 = 0.1104	744.6	739.7	734.8	–	–	–	1139	0.392	0.372	0.353
[1], x2 = 0.2044	764.5	759.5	754.6	–	–	–	1155	0.418	0.397	0.377
[1], x2 = 0.3028	787.3	782.2	777.1	–	–	–	1172	0.451	0.428	0.404
[1], x2 = 0.398	811.3	806.1	800.9	–	–	–	1189	0.494	0.466	0.438
[1], x2 = 0.4946	838	832.8	827.5	–	–	–	1210	0.542	0.512	0.481
[1], x2 = 0.5986	869.7	864.3	859	–	–	–	1234	0.613	0.575	0.538
[1], x2 = 0.6952	902.3	896.8	891.5	–	–	–	1260	0.697	0.652	0.608
[1], x2 = 0.7996	941.2	935.6	930	–	–	–	1290	0.815	0.76	0.705
[1], x2 = 0.8934	979.8	974.2	968.5	–	–	–	1318	0.958	0.889	0.821
[2], x2 = 0	–	–	–	1.3983	1.3955	1.3926	–	–	–	–
[2], x2 = 0.1104	–	–	–	1.3996	1.3969	1.3942	–	–	–	–
[2], x2 = 0.2044	–	–	–	1.4014	1.3985	1.3956	–	–	–	–
[2], x2 = 0.3028	–	–	–	1.4032	1.4002	1.3972	–	–	–	–
[2], x2 = 0.398	–	–	–	1.4048	1.402	1.3994	–	–	–	–
[2], x2 = 0.4946	–	–	–	1.4068	1.404	1.4013	–	–	–	–
[2], x2 = 0.5986	–	–	–	1.4095	1.4067	1.4041	–	–	–	–
[2], x2 = 0.6952	–	–	–	1.4117	1.409	1.4062	–	–	–	–
[2], x2 = 0.7996	–	–	–	1.4147	1.412	1.4093	–	–	–	–
[2], x2 = 0.8934	–	–	–	1.4176	1.4148	1.4121	–	–	–	–
